Data published in article PMC8358987 (Clinical cancer research : an official journal of the …, 2021).

How the values were obtained:
OATP1B1 [1] = molecular target: T1, OATP1B1 (Homo sapiens, UniProt Q9Y6L6); format: cell-based; conditions: for Reduction of OATP1B1 function: overexpressing HEK293 cells, 10 μM TKI screen; for Mechanism of OATP1B1 inhibition: kinetic analysis (Dixon plot) and pre-incubation effects
T1 sequence (Q9Y6L6 1-691): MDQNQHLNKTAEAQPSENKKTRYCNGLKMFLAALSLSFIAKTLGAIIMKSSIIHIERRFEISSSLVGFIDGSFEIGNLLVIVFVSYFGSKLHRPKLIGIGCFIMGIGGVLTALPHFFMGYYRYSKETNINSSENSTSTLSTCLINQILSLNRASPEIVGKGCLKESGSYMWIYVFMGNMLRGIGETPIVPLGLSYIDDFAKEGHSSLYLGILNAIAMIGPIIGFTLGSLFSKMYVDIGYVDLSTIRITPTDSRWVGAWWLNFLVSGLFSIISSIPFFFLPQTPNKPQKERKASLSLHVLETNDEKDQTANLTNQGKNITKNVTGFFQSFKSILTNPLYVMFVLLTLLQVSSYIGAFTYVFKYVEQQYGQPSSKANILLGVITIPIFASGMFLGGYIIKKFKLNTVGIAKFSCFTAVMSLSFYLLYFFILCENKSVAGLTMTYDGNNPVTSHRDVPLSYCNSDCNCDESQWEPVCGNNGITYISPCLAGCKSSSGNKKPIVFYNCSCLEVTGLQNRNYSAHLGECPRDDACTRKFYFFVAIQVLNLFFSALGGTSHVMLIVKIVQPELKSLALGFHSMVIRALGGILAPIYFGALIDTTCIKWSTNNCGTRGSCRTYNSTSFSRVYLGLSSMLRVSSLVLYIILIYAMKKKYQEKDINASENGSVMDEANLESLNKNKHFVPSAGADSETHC

LYN kinase = LYN kinase (Homo sapiens, UniProt P07948); test: Kinase hotspot assay against LYN kinase; format: biochemical; conditions: for Inhibition of LYN kinase activity: 10-dose curve from 50 μM, 10 μM ATP
[2] = cited from earlier work
OATP1B1 [3] = conditions: ref prescribing information; cited from earlier work
OATP1B1 [4] = molecular target: T1, OATP1B1; test: Cellular accumulation of 3H-lapatinib; format: in vitro ADME; conditions: 3H-lapatinib 1 μM
PKC = conditions: concentrations of nilotinib used in the study; cited from earlier work
OATP1B1 [5] = test: Mass spectrometric analysis of OATP1B1 tyrosine phosphorylation; format: cell-based, human; conditions: 10 μM nilotinib 15 minutes
OATP1B1 [6] = test: Surface expression of OATP1B1 by biotinylation; format: cell-based, human; conditions: 10 μM nilotinib
OATP1B1 [7] = molecular target: T1, OATP1B1; test: OATP1B1-dependent uptake of 3H-EβG in human plateable hepatocytes; format: cell-based; conditions: 10 μM, 15 min pre-incubation; 3H-EβG 1 μM, 2 minutes

Chain of LYN kinase (P07948 whole entry): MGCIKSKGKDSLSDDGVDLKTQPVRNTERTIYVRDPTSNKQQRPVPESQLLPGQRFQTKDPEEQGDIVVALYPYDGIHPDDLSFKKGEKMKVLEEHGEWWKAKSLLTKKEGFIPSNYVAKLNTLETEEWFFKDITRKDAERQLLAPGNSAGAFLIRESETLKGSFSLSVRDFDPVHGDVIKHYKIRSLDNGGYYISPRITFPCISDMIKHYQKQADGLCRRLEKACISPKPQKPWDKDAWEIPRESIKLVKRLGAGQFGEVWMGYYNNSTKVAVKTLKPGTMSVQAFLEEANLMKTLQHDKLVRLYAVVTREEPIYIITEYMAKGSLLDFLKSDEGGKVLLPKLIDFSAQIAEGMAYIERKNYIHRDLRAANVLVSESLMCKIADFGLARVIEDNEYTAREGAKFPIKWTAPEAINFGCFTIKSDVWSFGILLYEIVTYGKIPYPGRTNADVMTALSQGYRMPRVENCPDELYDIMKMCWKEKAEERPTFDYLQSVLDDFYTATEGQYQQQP

## CNC(=O)c1ccccc1Sc1ccc2c(/C=C/c3ccccn3)n[nH]c2c1 [axitinib]
OATP1B1 [1]
  Reduction of OATP1B1 function: > 75%

## COc1cc2nccc(Oc3ccc(NC(=O)C4(C(=O)Nc5ccc(F)cc5)CC4)cc3)c2cc1OC [cabozantinib]
LYN kinase
  IC50: 15 to 685 nM
OATP1B1 [1]
  Reduction of OATP1B1 function: > 75%

## CC(C)(C)c1nc(-c2cccc(NS(=O)(=O)c3c(F)cccc3F)c2F)c(-c2ccnc(N)n2)s1 [dabrafenib]
[2]
  Effect on systemic concentrations of the OATP1B1 substrate rosuvastatin: increase the systemic concentrations
OATP1B1 [1]
  Reduction of OATP1B1 function: > 75%

## CS(=O)(=O)CCNCc1ccc(-c2ccc3ncnc(Nc4ccc(OCc5cccc(F)c5)c(Cl)c4)c3c2)o1 [lapatinib]
LYN kinase
  Inhibition of LYN kinase activity: did not inhibit
OATP1B1 [3]
  OATP1B1 substrate/inhibitor status per prescribing information: can reduce OATP1B1 function
OATP1B1 [4]
  OATP1B1 substrate status: transported substrate of OATP1B1

## O=C(Nc1cnn2ccc(N3CCC[C@@H]3c3cc(F)ccc3F)nc12)N1CC[C@H](O)C1 [larotrectinib]
OATP1B1 [3]
  OATP1B1 substrate/inhibitor status per prescribing information: neither a substrate nor an inhibitor of OATP1B1

## Cc1cn(-c2cc(NC(=O)c3ccc(C)c(Nc4nccc(-c5cccnc5)n4)c3)cc(C(F)(F)F)c2)cn1 [nilotinib]
PKC
  Effect on PKC activity: do not affect PKC activity
OATP1B1 [5]; overexpressing HEK293 cells
  Effect on overall tyrosine phosphorylation of OATP1B1: no significant effect
OATP1B1 [5]; P<0.05
  Effect on OATP1B1 phosphorylation at Y645: significantly reduced
OATP1B1 [5]; trend, P = 0.11
  Effect on OATP1B1 phosphorylation of Y640 alone: not significantly reduced
OATP1B1 [6]
  Effect on membrane surface expression of OATP1B1: not associated with significantly reduced membrane surface expression
OATP1B1 [7]
  Effect on OATP1B1-dependent transport ex vivo in human hepatocytes: reduces OATP1B1-dependent transport
OATP1B1 [1]
  Mechanism of OATP1B1 inhibition: predominantly non-competitive
  Reduction of OATP1B1 function: > 75%

## Cc1ccc(Nc2nccc(N(C)c3ccc4c(C)n(C)nc4c3)n2)cc1S(N)(=O)=O [pazopanib]
[2]
  Effect on systemic concentrations of the OATP1B1 substrate rosuvastatin: increase the systemic concentrations

## CNC(=O)c1cc(Oc2ccc(NC(=O)Nc3ccc(Cl)c(C(F)(F)F)c3)cc2)ccn1 [sorafenib]
OATP1B1 [1]
  Reduction of OATP1B1 function: > 75%

## CC(=O)Nc1cccc(-n2c(=O)n(C3CC3)c(=O)c3c(Nc4ccc(I)cc4F)n(C)c(=O)c(C)c32)c1 [trametinib]
LYN kinase
  Inhibition of LYN kinase activity: did not inhibit
OATP1B1 [1]
  Mechanism of OATP1B1 inhibition: competitive
